# Data from patent US4728638A, “Somatostatine derivatives” (Sandoz Ltd., priority 1985, dated 1988).
# Test system: GH-secretion
# Assay: GH-secretion inhibiting test: depression of serum GH-levels in the rat (radio-immuno-assay)
# Format: in vivo
# Conditions: male rats, s.c.
# Description: This test is carried out employing male rats. The test-substance is administered at varying, logarithmically staggered doses employing at least 5 rats per dose. 1, 6 and 18 hours after the administration of the test substance blood is taken. The determination of the serum GH-level is effected by radio-immuno-assay. The compounds of formula I are active in this test when administered at a dosage in the range of from 0.01 to 50 μg/kg s.c.
structure (smiles),measurement,setting,value
"C[C@H](N)C(=O)NCC(=O)N[C@H]1CSSC[C@@H](C(=O)O)NC(=O)[C@H](CO)NC(=O)[C@H]([C@@H](C)O)NC(=O)[C@H](Cc2ccccc2)NC(=O)[C@H]([C@@H](C)O)NC(=O)[C@H](CCCCN)NC(=O)[C@H](Cc2c[nH]c3ccccc23)NC(=O)[C@H](Cc2ccccc2)NC(=O)[C@H](Cc2ccccc2)NC(=O)[C@H](CC(N)=O)NC(=O)[C@H](CCCCN)NC1=O [natural somatostatine, somatostatine]",ID50 in the GH-secretion inhibiting test after 1 hour,blood taken 1 hour after administration,0.95 mg/kg
same,ID50 in the GH-secretion inhibiting test after 6 hours,blood taken 6 hours after administration,extremely high and therefore not determinable
